Measurements: patent publication US7691858B2, “Kinase inhibitors and methods of use thereof” (TargeGen, Inc., priority 2006, dated 2010)
“Also recorded” adds a separate entry of the source.

What was measured:
[1] = test system: VEGF-induced edema; assay: Miles assay, VEGF as agonist; type: in vivo, Sprague-Dawley rats
Method: A rodent model of vascular edema, the Miles assay, was used to screen compounds for their ability to inhibit VEGF-induced edema. […] Sprague-Dawley rats were first injected IV with vehicle alone or test agent, followed by IV injection of Evans blue dye, followed by intradermal injections of saline and VEGF (200 ng/injection site) along both shaved flanks.

[2] = test system: myocardial infarct; assay: Rodent model of acute myocardial infarct (LAD occlusion/reperfusion); type: in vivo, Sprague-Dawley rats
Method: A rodent model of acute myocardial infarct, in which the proximal left anterior descending coronary artery (LAD) is occluded for 60 min followed by reperfusion, was used to determine whether test agents reduced infarct size at 24 hours.
Myocardial infarcts were created in Sprague-Dawley rats (200-300 g body weight) by a 60 min occlusion of the LAD followed by LAD reperfusion. […] At 24 hr post-treatment, the ischemic zone (area at-risk, AAR) was delineated by re-ligation of the LAD followed by IV injection of alkali blue dye, after which hearts were sectioned along the short axis and stained using triphenyltetrazolium chloride to delineate viable from infarcted myocardium. Photographic images were then analyzed using morphometric software to calculate infarct area as a percent of the at-risk area.
Rodent MI model: All animal studies followed current “NIH Guidelines for the Use of Laboratory Animals” and were performed according to IACUC-approved protocols. Sprague-Dawley rats (275-300 g) were anesthetized using inhaled isoflurane after which chest walls were shaved and swabbed with iodine. Animals were then intubated and maintained on 2% isoflurane (delivered in 30% O2/70% N2), with optimal respiratory rate and stroke volumes set by a volume-controlled safety ventilator (Inspira Advanced Safety Ventilator; Harvard Apparatus, Holliston, Mass.). Body temperatures were maintained at 35-37° C. using heating pads and five-lead electrocardiograms established. For each animal, a left thoracotomy was performed at the third intercostal space, the heart was exposed and a suture snare tightened around the LAD at the point it appeared from beneath the left atrium. Ischemia was confirmed from blanching of the left ventricle (LV) as well as changes in ECG patterns. After the desired period of occlusion (60 min in the standard model), the suture snare was loosened to allow complete reperfusion (but retained in place using shallow sutures) and the chest closed in layers. […].
For infarct size determination, LAD occlusion was repeated on each animal 24 hr after the initial occlusion. The ischemic zone (area-at-risk or AAR) was then delineated by i.v. injection of Evans blue dye (5 ml of a 10% saline solution containing 100 U/ml sodium heparin). The heart was explanted, atria and right ventricle trimmed free, and the LV (septal and free walls) frozen at −20° C. to induce rigor. After thawing on ice, the LV was subdivided into six 2 mm thick sections along the short axis using a metal form to guide dissection. Heart sections were stained for 20 min in 37° C. triphenyltetrazolium chloride (TTC, 2% in 0.04 M K2HPO4/0.17 M sucrose) to delineate viable from infarcted myocardium, fixed for 20 min in 10% formalin, then rinsed in saline. For each section, photographs were taken of both anterior and posterior surfaces and these images analyzed (by personnel blinded as to treatment identity) using a morphometric software package (Image Pro Plus; Media Cybernetics, Silver Spring, Md.). The following areas were calculated, based on their differing pixel densities: non-ischemic zone (Evans blue-stained), viable-but-ischemic zone (free of Evans blue but TTC-stained), and infarct-within-ischemic zone (free of both Evans blue and TTC stain). Area values for anterior and posterior views were averaged, and these values used to calculate the following AAR=Viable-but-ischemic Area+Infarct Area Equation 1 Total LV Area=AAR+Non-ischemic Area Equation 2

[3] = target: T1, Arg (Homo sapiens, UniProt P42684); assay: Kinase panel screen; type: biochemical; details: Compound I and ATP 10 μM
T1 construct: purchased Upstate USA or Invitrogen (contract screening service)

[4] = target: T2, ROCK-II (Homo sapiens, UniProt O75116); assay: Kinase panel screen; type: biochemical; details: Compound I and ATP 10 μM
T2 construct: purchased Upstate USA or Invitrogen (commercial screening service)

[5] = target: T3, Bmx (Homo sapiens, UniProt P51813); assay: Kinase panel screen; type: biochemical; details: Compound I and ATP 10 μM
T3 construct: purchased Upstate USA or Invitrogen (commercial screening service)

[6] = target: T4, GSK3 3 (Homo sapiens, UniProt P49841); assay: Kinase panel screen; type: biochemical; details: Compound I and ATP 10 μM
T4 construct: purchased Upstate USA or Invitrogen (commercial screening service)

[7] = target: T5, CaMKIV (Homo sapiens, UniProt Q16566); assay: Kinase panel screen; type: biochemical; details: Compound I and ATP 10 μM
T5 construct: purchased Upstate USA or Invitrogen (commercial screening service)

[8] = target: T6, SAPK2b (Homo sapiens, UniProt Q15759); assay: Kinase panel screen; type: biochemical; details: Compound I and ATP 10 μM
T6 construct: purchased Upstate USA or Invitrogen (commercial screening service)

[9] = target: T7, CK2 (Homo sapiens, UniProt P68400); assay: Kinase panel screen; type: biochemical; details: Compound I at 1 μM and ATP at the apparent Km
T7 construct: purchased Upstate USA or Invitrogen (contract screening service)

[10] = target: T8, ZAP-70 (Homo sapiens, UniProt P43403); assay: Kinase panel screen; type: biochemical; details: Compound I and ATP 10 μM
T8 construct: purchased Upstate USA or Invitrogen (commercial screening service)
T8 sequence (P43403 whole entry): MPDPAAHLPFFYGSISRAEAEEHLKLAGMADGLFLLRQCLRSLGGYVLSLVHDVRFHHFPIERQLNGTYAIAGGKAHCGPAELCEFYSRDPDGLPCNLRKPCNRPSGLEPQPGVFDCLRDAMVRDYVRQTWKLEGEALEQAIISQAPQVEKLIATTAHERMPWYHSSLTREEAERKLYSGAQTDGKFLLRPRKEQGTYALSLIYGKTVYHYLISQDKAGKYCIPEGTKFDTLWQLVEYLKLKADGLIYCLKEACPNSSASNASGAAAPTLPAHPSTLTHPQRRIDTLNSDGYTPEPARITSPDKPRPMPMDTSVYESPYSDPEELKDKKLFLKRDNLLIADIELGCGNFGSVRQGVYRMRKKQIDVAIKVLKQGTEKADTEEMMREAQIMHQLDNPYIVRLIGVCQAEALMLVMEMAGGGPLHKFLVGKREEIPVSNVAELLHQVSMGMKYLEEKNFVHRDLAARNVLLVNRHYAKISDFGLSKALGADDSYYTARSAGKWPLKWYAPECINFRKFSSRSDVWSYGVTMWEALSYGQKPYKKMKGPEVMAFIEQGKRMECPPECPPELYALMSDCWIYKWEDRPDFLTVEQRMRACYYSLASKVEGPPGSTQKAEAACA

T2 sequence (O75116 whole entry): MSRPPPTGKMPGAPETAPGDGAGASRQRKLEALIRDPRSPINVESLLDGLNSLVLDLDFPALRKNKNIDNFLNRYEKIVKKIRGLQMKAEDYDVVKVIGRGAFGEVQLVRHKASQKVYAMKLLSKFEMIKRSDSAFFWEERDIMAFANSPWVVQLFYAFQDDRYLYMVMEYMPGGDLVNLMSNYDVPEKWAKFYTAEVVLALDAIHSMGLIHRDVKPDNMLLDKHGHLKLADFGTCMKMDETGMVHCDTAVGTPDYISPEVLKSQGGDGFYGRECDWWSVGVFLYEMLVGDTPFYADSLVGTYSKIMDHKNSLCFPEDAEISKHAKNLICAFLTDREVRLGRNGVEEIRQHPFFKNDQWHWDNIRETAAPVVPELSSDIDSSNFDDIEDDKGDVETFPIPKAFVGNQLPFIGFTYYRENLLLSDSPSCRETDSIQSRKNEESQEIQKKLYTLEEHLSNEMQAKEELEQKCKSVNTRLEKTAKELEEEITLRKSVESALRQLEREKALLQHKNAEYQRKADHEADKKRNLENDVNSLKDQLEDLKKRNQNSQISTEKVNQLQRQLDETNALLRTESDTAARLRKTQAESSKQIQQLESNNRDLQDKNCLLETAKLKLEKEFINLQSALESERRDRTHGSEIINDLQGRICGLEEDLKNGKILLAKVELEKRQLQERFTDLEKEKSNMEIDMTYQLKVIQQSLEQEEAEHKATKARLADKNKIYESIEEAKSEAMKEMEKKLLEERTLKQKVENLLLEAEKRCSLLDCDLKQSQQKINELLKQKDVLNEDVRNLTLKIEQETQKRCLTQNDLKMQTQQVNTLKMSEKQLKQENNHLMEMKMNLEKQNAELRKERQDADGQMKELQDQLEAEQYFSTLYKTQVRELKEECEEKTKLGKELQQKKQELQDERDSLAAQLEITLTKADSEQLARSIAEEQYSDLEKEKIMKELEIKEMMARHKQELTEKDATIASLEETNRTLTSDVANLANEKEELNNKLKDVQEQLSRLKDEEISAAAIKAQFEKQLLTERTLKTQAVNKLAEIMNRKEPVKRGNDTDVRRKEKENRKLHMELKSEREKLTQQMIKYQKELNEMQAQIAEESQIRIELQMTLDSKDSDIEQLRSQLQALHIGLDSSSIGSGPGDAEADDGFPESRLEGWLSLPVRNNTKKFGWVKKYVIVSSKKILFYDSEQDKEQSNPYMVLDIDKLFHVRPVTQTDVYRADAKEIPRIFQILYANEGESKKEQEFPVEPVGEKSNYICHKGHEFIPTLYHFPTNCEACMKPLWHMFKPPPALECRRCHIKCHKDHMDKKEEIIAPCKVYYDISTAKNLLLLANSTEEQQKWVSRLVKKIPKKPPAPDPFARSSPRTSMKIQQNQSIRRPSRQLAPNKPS
T7 sequence (P68400 whole entry): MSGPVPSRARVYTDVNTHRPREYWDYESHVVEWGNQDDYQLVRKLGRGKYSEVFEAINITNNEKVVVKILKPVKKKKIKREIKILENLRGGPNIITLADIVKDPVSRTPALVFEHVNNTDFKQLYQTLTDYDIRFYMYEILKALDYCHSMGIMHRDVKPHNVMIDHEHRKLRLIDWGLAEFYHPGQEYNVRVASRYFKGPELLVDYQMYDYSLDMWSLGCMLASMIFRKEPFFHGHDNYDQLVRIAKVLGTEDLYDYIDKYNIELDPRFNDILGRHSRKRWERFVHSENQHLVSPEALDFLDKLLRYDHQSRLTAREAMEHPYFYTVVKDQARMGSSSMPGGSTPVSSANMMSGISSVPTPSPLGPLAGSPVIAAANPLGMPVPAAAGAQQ
T4 sequence (P49841 whole entry): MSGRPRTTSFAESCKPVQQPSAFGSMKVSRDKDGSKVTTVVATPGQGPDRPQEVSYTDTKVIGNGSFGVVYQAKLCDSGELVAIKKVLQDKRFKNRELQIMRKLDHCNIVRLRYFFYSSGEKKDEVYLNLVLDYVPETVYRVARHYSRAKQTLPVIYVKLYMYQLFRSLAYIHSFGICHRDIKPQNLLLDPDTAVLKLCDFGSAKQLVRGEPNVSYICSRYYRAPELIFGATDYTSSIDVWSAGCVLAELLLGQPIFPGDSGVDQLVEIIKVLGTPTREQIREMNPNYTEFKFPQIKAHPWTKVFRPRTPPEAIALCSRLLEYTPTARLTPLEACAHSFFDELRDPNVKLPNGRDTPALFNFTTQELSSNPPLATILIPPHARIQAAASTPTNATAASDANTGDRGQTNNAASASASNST
T6 sequence (Q15759 whole entry): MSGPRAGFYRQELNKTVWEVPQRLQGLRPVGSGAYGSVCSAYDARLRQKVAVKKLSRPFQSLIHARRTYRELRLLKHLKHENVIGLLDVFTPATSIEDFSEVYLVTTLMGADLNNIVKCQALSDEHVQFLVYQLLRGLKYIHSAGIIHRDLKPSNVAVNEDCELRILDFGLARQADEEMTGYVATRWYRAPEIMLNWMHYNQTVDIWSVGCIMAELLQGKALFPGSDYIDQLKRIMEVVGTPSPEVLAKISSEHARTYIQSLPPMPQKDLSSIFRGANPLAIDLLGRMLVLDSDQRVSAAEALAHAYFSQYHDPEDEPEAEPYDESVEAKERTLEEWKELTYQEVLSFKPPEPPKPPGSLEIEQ
T3 sequence (P51813 whole entry): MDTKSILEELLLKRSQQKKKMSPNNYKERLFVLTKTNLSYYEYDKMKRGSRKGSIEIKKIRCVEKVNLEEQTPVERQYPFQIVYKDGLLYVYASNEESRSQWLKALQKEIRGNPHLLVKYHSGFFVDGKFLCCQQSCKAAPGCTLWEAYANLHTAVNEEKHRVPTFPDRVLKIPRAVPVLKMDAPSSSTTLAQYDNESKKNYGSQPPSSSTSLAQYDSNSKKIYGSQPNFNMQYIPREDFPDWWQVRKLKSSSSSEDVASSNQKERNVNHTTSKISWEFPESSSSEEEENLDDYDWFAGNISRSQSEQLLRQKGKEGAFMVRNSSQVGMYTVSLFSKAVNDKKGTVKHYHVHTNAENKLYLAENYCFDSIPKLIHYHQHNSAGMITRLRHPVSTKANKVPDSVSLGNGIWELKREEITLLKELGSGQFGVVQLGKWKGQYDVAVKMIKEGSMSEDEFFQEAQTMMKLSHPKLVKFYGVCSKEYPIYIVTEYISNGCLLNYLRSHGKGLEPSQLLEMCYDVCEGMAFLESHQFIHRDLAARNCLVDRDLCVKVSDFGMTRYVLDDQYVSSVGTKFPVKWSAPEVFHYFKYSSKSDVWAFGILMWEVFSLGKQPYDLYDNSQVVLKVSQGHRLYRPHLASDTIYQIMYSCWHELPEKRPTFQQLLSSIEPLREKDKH
T1 sequence (P42684 whole entry): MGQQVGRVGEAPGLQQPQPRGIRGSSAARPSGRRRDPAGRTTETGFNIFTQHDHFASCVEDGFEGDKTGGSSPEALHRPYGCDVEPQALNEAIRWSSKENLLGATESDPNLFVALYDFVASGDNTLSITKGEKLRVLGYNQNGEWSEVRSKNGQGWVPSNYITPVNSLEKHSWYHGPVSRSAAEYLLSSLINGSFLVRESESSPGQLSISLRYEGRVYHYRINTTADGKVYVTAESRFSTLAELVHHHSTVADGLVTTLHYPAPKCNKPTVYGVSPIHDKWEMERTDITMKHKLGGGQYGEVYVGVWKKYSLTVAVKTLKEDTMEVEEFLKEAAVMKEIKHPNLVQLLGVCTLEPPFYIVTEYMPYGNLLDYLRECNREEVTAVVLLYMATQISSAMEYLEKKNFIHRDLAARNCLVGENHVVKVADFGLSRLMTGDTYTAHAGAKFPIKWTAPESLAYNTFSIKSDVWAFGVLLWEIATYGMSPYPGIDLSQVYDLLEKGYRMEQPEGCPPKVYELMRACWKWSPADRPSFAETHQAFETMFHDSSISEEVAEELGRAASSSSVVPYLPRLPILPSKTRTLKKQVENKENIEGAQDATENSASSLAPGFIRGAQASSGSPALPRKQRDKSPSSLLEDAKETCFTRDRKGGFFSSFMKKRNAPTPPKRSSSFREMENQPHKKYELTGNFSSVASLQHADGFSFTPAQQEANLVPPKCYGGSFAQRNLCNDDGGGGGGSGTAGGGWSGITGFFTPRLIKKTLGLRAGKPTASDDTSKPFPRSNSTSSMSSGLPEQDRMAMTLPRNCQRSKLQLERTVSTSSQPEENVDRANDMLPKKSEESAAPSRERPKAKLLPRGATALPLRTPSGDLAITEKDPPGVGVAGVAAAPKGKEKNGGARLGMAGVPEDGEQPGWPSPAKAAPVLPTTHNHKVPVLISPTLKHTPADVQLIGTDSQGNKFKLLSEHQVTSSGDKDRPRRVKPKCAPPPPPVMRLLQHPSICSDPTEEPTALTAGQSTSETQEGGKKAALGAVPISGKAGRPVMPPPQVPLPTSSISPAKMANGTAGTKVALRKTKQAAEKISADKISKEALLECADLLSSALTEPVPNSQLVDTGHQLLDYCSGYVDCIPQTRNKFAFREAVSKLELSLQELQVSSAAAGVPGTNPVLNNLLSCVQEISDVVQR

With Nc1nc(N)c2nc(-c3cccc(O)c3)c(-c3cccc(O)c3)nc2n1 [Compound I, 6,7-bis-(3-hydroxyphenyl)-pteridine-2,4-diamine] the “time for which a single i.v. administration reduced edema formation” value ([1]; Miles assay, varied time between compound and agonist challenge, data not shown) was “at least 4 hours”, the “VEGF-induced vascular permeability / edema formation” value ([1]; rats, Compound I pretreatment (1 mg/kg in FIG. 4)) was “inhibited; also recorded: reduced edema formation” and the “reductions in infarct development vs. vehicle-treated controls” value ([2]; 0.1 mg/kg, delivery between 0 and 3 h post-reperfusion (FIG. 6b)) was 58-67%. For the same molecule, the “reduction in infarct size vs. vehicle controls” value ([2]; rats, 0.3 mg/kg IV bolus 60 min into reperfusion, 24 hr, N=8) was 43%, the “infarct area as percentage of ischemic territory” value ([2]; rats, 0.3 mg/kg IV bolus 60 min into reperfusion, mean±SD (±9), vehicle 62%±7) was 35% and the “improvement in fractional shortening” value ([2]; single 0.5 mg/kg bolus one hour post-reperfusion, 4 weeks) was 24%. For the same molecule, the “percent left ventricular long axis fractional shortening” value ([2]; single 0.5 mg/kg bolus one hour post-reperfusion, echocardiography 4 weeks, mean±SEM, vehicle 27.2±1.9) was 33.6±2.0%, the “reduction of infarct size” value ([2]; single i.v. bolus 60 mm post-reperfusion) was no less than 40% and the “Percent Control, Arg” value [3] was 43%. For the same molecule, the “Percent Control, ROCK-II” value [4] was 81%, the “Percent Control, Bmx” value [5] was 58% and the “Percent Control, GSK3 3” value [6] was “p70S6K Percent”. For the same molecule, the “Percent Control, CaMKIV” value [7] was 87%, the “Percent Control, SAPK2b” value [8] was 87% and the “Percent Control, CK2*” value [9] was 96%. For the same molecule, the “Percent Control, ZAP-70” value [10] was 96%.
